# “And” between values parts separate entries of the source, which are not always exact repeats. Equal entries are not always repeated. Peptide text beside a SMILES is read from it.
# What was measured:
# HeLa S3 cells [1] = test: Evaluation test 2 of multinucleation-inducing activity (multinucleation induction ratio); type: cell-based, human; details: 50 μM peptide, 4 days; for number of multinuclear cells (number): cells with two or more nuclei in 1 field of vision, individual test; for multinucleation induction ratio (%): individual test (1 field of vision)
# Method: The multinucleation induction ratio was determined for the multinucleation-inducing synthetic peptides (sample 1 and sample 2) obtained in Example 1. The same HeLa S3 cells as in Example 2 were used for the sample cells. The evaluation test is described in the following.
# HeLa S3 cells were seeded into each well of an 8-chamber (well) cell culture slide (also referred to as a chamber) to provide approximately 0.5×10^3 cells per well and were cultured overnight in an incubator under conditions of 5% CO2 and 37° C. The medium used was a common DMEM medium, i.e., DMEM (Wako Pure Chemical industries, Ltd., Cat. No. 043-30085) containing 10% FBS, 100 units/mL of penicillin, and 100 μg/mL of streptomycin. After this overnight culture, the medium in the culture chamber was exchanged for medium obtained by the addition of sample 1 or sample 2 in an amount giving a peptide concentration of 50 μM to DMEM medium prepared by adding 3% FBS, 100 units/mL of penicillin, and 100 μg/mL of streptomycin to the aforementioned DMEM, and subculturing was carried out by culture for 4 days under the same conditions. The control group was a peptide-free group in which only PBS (−) was added in the same volume as the peptide stock solution that was added in the sample addition groups.
# After completion of the culture period, the cells in the test groups were subjected to cytoimmunostaining of a cytoplasm marker (calreticulin) nuclear staining as in Example 2. After the execution of the cytoimmunostaining and nuclear staining, the cells each test group were subjected to fluorescence observation using a confocal laser microscope and, for the cells observed in 1 field of vision, the total number of cells and the number of cells presenting two or more nuclei (number of multinucleated cells) were counted. The multinucleation induction ratio (proportion (%) for the number of cells having two or more nuclei with reference to the total number of cells observed in 1 field of vision in the microscopic observation) was calculated using the following formula: multinucleation induction ratio (%)=(number of cells having two or more nuclei)÷(total number of cells)×100. Using these conditions air the evaluation test for the multinucleation induction ratio, the test was carried out independently three times and the average multinucleation induction ratio was calculated by taking the average of the multinucleation induction ratios obtained in the individual tests.
# HeLa S3 cells [2] = test: Evaluation test 1 of multinucleation-inducing activity (calreticulin cytoimmunostaining and DAPI nuclear staining, confocal fluorescence observation); type: cell-based, human; details: peptide concentration 50 μM, culture for 4 days
# Method: To evaluate the multinucleation-inducing activity of the multinucleation-inducing synthetic peptides (sample 1 and sample 2) obtained in Example 1, cytoimmunostaining (fluorescence immunostaining) was performed using calreticulin as the cytoplasm marker and nuclear staining was performed with DAPI (4′,6-diamidino-2-phenylindole). HeLa S3 cells (ATCC (registered trademark), CCL2.2), a cultured cell strain originating from human cervical cancer, were used as the sample cells. The evaluation test is described in the following.
# HeLa S3 cells were seeded into each well of a 4-chamber (well) cell culture slide (also referred to as a chamber) to provide approximately 1×10^3 cells per well and were cultured overnight in an incubator under conditions of 5% CO2 and 37° C. The medium used was a common DMEM medium, i.e., DMEM (Wako Pure Chemical Industries, Ltd., Cat. No. 043-30085) containing 10% […], 100 units/mL of penicillin, and 100 μg/mL of streptomycin. After this overnight culture, the medium in the culture chamber was exchanged for medium obtained by the addition, to the aforementioned DMEM medium containing PBS, penicillin and streptomycin, of the sample 1, sample 2, or sample 3 peptide in an amount providing a peptide concentration of 50 μM, and subculturing was carried out by culture for 4 days under the same conditions. The control group was a peptide-free group in which only PBS (−) was added in the same volume as the peptide stock solution that was added in the sample addition groups.
# After completion of the culture period, the status of multinucleation in the cells in each test group was observed using the following cytoimmunostaining.
# The cells in each test group wore first fixed followed by a blocking treatment. Specifically, the medium in the culture chamber in the test group was first removed and washing was carried out twice with cold PBS (−). A solution prepared by mixing 1 volume of methanol with 1 volume of acetone (methanol/acetone=1:1 solution) was then added and the HeLa S3 cells were fixed by standing for 15 minutes on ice. The methanol/acetone=1:1 solution was then removed acid washing was carried out three times with cold PBS PBS (−) containing 3% BSA (PBS (−) that contained 3% BSA) was added and a blocking treatment was carried out for 1 hour at room temperature. After the passage of the prescribed period of time, the PBS (−) containing 3% BSA was removed and washing with cold PBS (−) was performed three times. […]
# The cells in each test group that had been subjected to this cytoimmunostaining were mounted using a cover glass and Slow Fade (Life Technologies Corporation, Cat. No. S36936), which is a DAPI-containing mountant, and fluorescence observation was performed using a confocal laser microscope. […]
Compound,average multinucleation induction ratio (%) (HeLa S3 cells [1]; average of three independent tests),number of multinuclear cells (number) (HeLa S3 cells [1]),multinucleation induction ratio (%) (HeLa S3 cells [1]),"cells in which a plurality of nuclei had formed (induction of multinucleation), fluorescence observation (HeLa S3 cells [2])","number of nuclei per multinucleated cell, compared with sample 2 addition group (HeLa S3 cells [2])"
"CC(C)C[C@H](NC(=O)[C@@H](NC(=O)[C@H](CCCNC(=N)N)NC(=O)[C@H](CCCCN)NC(=O)[C@@H](N)CCCCN)[C@@H](C)O)C(=O)N[C@@H](CCCNC(=N)N)C(=O)N[C@@H](CCCCN)C(=O)N[C@@H](CC(N)=O)C(=O)N[C@@H](CC(=O)O)C(=O)N[C@@H](CCCNC(=N)N)C(=O)N[C@@H](CCCCN)C(=O)N[C@@H](CCCCN)C(=O)N[C@@H](CCCNC(=N)N)C(=O)NCC(=O)NCC(=O)N[C@@H](CS)C(=O)N[C@@H](CO)C(=O)N[C@@H](CCCNC(=N)N)C(=O)N[C@@H](CCCNC(=N)N)C(=O)N[C@@H](CO)C(=O)N[C@@H](CCCCN)C(=O)N[C@@H](CO)C(=O)N[C@@H](CCCCN)C(=O)N[C@@H](CS)C(=O)O [sample 2, KKRTLRKNDRKKR GG CSRRSKSKC] (H-KKRTLRKNDRKKRGGCSRRSKSKC-OH; N-terminus and C-terminus assumed)",35.6,9 number and 12 number and 11 number,30.0% and 37.5% and 39.3%,cells in which a plurality of nuclei had formed were observed,–
"CC(C)C[C@H](NC(=O)[C@@H](NC(=O)[C@H](CCCNC(=N)N)NC(=O)[C@H](CCCCN)NC(=O)[C@@H](N)CCCCN)[C@@H](C)O)C(=O)N[C@@H](CCCNC(=N)N)C(=O)N[C@@H](CCCCN)C(=O)N[C@@H](CC(N)=O)C(=O)N[C@@H](CC(=O)O)C(=O)N[C@@H](CCCNC(=N)N)C(=O)N[C@@H](CCCCN)C(=O)N[C@@H](CCCCN)C(=O)N[C@@H](CCCNC(=N)N)C(=O)NCC(=O)NCC(=O)N[C@@H](CS)C(=O)N1CCC[C@H]1C(=O)N[C@@H](CC(=O)O)C(=O)NCC(=O)N[C@@H](C)C(=O)N[C@@H](CCCCN)C(=O)N[C@@H](C)C(=O)N[C@@H](CCCNC(=N)N)C(=O)N[C@@H](CS)C(=O)O [sample 1, KKRTLRKNDRKKR GG CPDGAKARC] (H-KKRTLRKNDRKKRGGCPDGAKARC-OH; N-terminus and C-terminus assumed)",–,12 number and 11 number and 13 number,41.4% and 39.3% and 41.9%,cells in which a plurality of nuclei had formed were observed,significantly larger number of nuclei per cell
"KKRTLRKNDRKKR (listed as Homo sapiens) [sample 3, reference compound]",–,–,–,cells in which a plurality of nuclei had formed were not observed,–

# Reference: patent US10112977B2, “Peptide for inducing multinucleation in cells, and use therefor” (Toagosei Co., Ltd., priority 2014, dated 2018)
